The values below come from patent publication US7235649B2, “Isolated GRP94 ligand binding domain polypeptide and nucleic acid encoding same, and screening methods employing same” (Duke University, priority 2000, dated 2007).

For test [1], the target named is T1, GRP94 (Sus scrofa, UniProt Q29092). Nature of the test: [3H]-NECA binding assay (vacuum filtration). Also noted: GRP94 was purified from porcine pancreas rough microsomes; from tissue; host or cells: porcine pancreas rough microsomes; species or system porcine.
For test [2], the target named is T1, GRP94. Nature of the test: [3H]-NECA competitive displacement assay. Also on record: GRP94 was purified from porcine pancreas rough microsomes; from tissue; host or cells: porcine pancreas rough microsomes. The note with it: 10 mM Mg(OAc)2 vs nominal endogenous magnesium. It counts as binding, porcine.
For test [3], the target named is T1, GRP94. Nature of the test: GRP94 autophosphorylation assay. The format is biochemical, porcine. Also on record: GRP94 was purified from porcine pancreas rough microsomes; from tissue; host or cells: porcine pancreas rough microsomes. The note with it: 180 μM NECA or 180 μM radicicol in 3.6% DMSO, 5 μg/ml heparin, 5 mM GTP; 1 hour 37° C. On the procedure: (§1) Phosphorylation Assays. […] For the casein kinase assay, 1 unit of casein kinase 11 was incubated as described above, with the addition of 4 μM casein. […] The 25 μl reaction mixtures were incubated at 37° C. for 1 hour and quenched by addition of 10% trichloroacetic acid. Samples were analyzed by 10% SDS-PAGE gels and the phosphorylated species were quantitated using a Fuji MACBAS1000™ phosphorimaging system (Fuji Medical Systems of Stamford, Conn.).

The target of test [4] is casein kinase II (Homo sapiens, UniProt P68400). Put plainly: Casein kinase II assay with casein. It counts as biochemical. The note with it: 180 μM NECA or 180 μM radicicol in 3.6% DMSO, 5 μg/ml heparin, 5 mM GTP; 4 μM casein. As to the method: as §1
Test [5] deals with BiP. Nature of the test: [3H]-NECA binding assay (vacuum filtration). Also noted: species or system porcine. The note with it: 20 nM [3H]-NECA, 60 min on ice. On the procedure: BiP was purified by the following procedure. A lumenal protein fraction obtained from porcine pancreas rough microsomes was cycled overnight through a 1 ml ADP-agarose and a 1 ml ATP-agarose (Sigma Chemical Co. of St. Louis, Mo.) column coupled in series. […] The BiP containing fractions were identified by SDS-PAGE, and dialyzed against 2×4 L of buffer A (110 mM KOAc, 20 mM NaCl, 25 mM K-Hepes, pH 7.2, 2 mM Mg(OAc)2 0.1 mM CaCl2). The protein sample was then applied to a SUPERDEX® 26/60 column (Amersham Pharmacia Biotech of Piscataway, N.J.) equilibrated in buffer A, and the BiP containing fractions, again identified by SDS-PAGE, were pooled and concentrated by centrifugal ultrafiltration (CENTRICON-30®; Amicon of Beverly, Mass.).
[^3H]-NECA Binding Assay.
In similar experiments, [^3H]-NECA binding to Hsp90 was evaluated in the presence of molybdate and NP-40, which are known to stabilize the Hsp90 conformation associated with ATP binding, as described by Sullivan et al. (1997).

Test [6] concerns the target T1, GRP94. Put plainly: Tryptophan fluorescence (ligand-induced conformational change). The note with it: 50 μM NECA, 50 μM geldanamycin, 2.5 mM ATP or 2.5 mM ADP, 1 hour at 37° C.
Description: Tryptophan Fluorescence. Tryptophan fluorescence measurements were conducted in a FLUOROMAX™ spectrofluorometer (Spex Industries, Inc. of Edison, N.J.) with the slit widths set to 1 nm for both excitation and emission. […] All spectra were corrected by subtraction of buffer or buffer plus ligand samples. […] Samples were then cooled to room temperature, transferred to a quartz cuvette, and the spectra collected.
The target in test [7] is T1, GRP94. Put plainly: Isothermal titration calorimetry. The format is binding, porcine. Also noted: GRP94 was purified from porcine pancreas rough microsomes; from tissue; host or cells: porcine pancreas rough microsomes. The note with it: 5 μM GRP94, 152 μM NECA stock, 25° C. In general terms: In ITC the heat of successive injections is recorded.
Description: Isothermal calorimetry experiments were performed at 25° C. using a MSC calorimeter (MicroCal Inc. of Northampton, Mass.). […] Necessary corrections were made by subtracting the heats of dilution resulting from buffer addition to protein solution and ligand solution into buffer.

T1 sequence (Q29092 22-804): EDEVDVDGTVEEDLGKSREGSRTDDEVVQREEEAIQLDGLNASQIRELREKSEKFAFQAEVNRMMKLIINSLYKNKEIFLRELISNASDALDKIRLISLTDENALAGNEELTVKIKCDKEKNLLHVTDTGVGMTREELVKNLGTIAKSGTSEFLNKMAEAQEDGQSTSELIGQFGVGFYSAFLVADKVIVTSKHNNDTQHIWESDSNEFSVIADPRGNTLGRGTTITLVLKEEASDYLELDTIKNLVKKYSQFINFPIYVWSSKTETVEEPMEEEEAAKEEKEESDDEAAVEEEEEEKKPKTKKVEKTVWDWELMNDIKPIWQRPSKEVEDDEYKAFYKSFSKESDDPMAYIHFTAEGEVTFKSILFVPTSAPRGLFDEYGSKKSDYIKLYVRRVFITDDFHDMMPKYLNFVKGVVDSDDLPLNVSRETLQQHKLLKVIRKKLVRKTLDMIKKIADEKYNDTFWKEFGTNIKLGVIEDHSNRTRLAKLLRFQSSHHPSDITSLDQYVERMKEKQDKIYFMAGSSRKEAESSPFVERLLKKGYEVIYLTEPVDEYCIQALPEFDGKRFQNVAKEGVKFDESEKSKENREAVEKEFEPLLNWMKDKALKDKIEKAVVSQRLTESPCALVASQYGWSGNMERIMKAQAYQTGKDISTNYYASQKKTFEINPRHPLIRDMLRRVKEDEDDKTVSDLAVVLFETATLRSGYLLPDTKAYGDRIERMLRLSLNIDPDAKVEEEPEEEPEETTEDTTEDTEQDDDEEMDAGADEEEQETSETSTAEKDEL
Chain of casein kinase II (P68400 whole entry): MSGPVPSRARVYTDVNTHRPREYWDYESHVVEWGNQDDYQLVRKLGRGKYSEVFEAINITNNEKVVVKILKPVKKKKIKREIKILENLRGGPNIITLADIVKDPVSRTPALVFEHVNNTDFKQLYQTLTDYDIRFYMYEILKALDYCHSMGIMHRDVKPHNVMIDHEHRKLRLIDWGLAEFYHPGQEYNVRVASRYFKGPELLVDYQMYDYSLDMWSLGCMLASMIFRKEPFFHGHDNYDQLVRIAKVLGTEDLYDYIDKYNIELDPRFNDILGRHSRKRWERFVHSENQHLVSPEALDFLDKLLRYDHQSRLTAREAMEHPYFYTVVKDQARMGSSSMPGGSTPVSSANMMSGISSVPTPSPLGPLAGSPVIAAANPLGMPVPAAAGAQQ
Chain of casein kinase II (P67870 whole entry partner): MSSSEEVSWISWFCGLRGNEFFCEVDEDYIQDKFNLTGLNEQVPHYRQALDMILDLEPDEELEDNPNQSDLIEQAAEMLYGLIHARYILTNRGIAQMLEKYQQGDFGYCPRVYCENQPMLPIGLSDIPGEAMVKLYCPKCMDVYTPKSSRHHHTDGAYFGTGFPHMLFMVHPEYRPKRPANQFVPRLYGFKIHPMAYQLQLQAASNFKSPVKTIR

On to `CCNC(=O)[C@H]1O[C@@H](n2cnc3c(N)ncnc32)[C@H](O)[C@@H]1O` [NECA, N-ethylcarboxamidoadenosine], for which the “[3H]-NECA binding activity of GRP94” value in test [1] (20 nM [3H]-NECA, 60 min on ice) is on record as “readily detectable”. In test [1] (ligand binding studies and isothermal titration calorimetry), the “stoichiometry of NECA bound to GRP94 at saturation (summary)” value was 1 mol NECA:mol GRP94 dimer. Further, in test [1] (saturation binding), the “Hill plot slope of [3H]-NECA binding” value came to 1.2 and the “binding stoichiometry of [3H]-NECA” value was 0.5 mol [^3H]-NECA/mol GRP94 monomer. Further, in test [1] (saturation curve, FIG. 9B), the “maximal binding stoichiometry of NECA” value was 1 molecule of NECA per molecule of GRP94 dimer. Moreover, in test [2], the “effect of excess Mg2+ on binding to GRP94” value was “without effect”. For the same molecule, the “effect on GRP94 autophosphorylation activity” value in test [3] was “does not significantly inhibit GRP94 autophosphorylation activity”. For the same molecule, the “effect on casein kinase II activity” value in test [4] is “neither NECA nor radicicol, both of which bind to the N-terminal nucleotide binding domain of GRP94, significantly inhibit GRP94 derived or casein kinase II activity”. In addition, the “[3H]-NECA binding to BiP” value in test [5] was “not observed”. Moreover, the “change of GRP94 tryptophan fluorescence” value in test [6] is “increased the tryptophan fluorescence”. The “binding stoichiometry of NECA by isothermal titration calorimetry” value in test [7] came out at 1.1 mol NECA/mol GRP94 dimer.
